In PubChem BioAssay (NCI):
“And” between values parts separate entries of the source, which are not always exact repeats. Equal values may be shown once.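 Protocol summary: plate cells (96-well), add compound at 5 concentrations, incubate 48 h, interpolate endpoints linearly. Here, GI50 denotes the concentration required for 50% inhibition of growth. TGI: total growth inhibition.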

Tests used:
Experiment in all cases: inhibition of tumour cell growth, NCI panel, 48 h
OVCAR-4 ovarian = tested on: OVCAR-4 ovarian
RXF 393 renal = tested on: RXF 393 renal
CAKI-1 renal = tested on: CAKI-1 renal
KM12 colon = tested on: KM12 colon
NCI-H226 lung = tested on: NCI-H226 lung
UACC-257 melanoma = tested on: UACC-257 melanoma
SNB-19 CNS = tested on: SNB-19 CNS
UACC-62 melanoma = tested on: UACC-62 melanoma
NCI-H522 lung = tested on: NCI-H522 lung
NCI/ADR-RES ovarian = tested on: NCI/ADR-RES ovarian

Structure (SMILES)	TGI (OVCAR-4 ovarian)	TGI (RXF 393 renal)	TGI (CAKI-1 renal)	TGI (KM12 colon)	TGI (NCI-H226 lung)	TGI (UACC-257 melanoma)	TGI (SNB-19 CNS)	TGI (UACC-62 melanoma)	TGI (NCI-H522 lung)	GI50 (RXF 393 renal)	TGI (NCI/ADR-RES ovarian)	GI50 (CAKI-1 renal)	GI50 (KM12 colon)	GI50 (NCI-H226 lung)	GI50 (UACC-62 melanoma)	GI50 (NCI-H522 lung)	GI50 (OVCAR-4 ovarian)	GI50 (NCI/ADR-RES ovarian)	GI50 (UACC-257 melanoma)	GI50 (SNB-19 CNS)
N/C(=C\c1ccc(/C=C(\NC(=O)c2ccccc2)c2nc3c([nH]2)C(=O)c2ccccc2C3=O)cc1)c1nc2c([nH]1)C(=O)c1ccccc1C2=O	34 µM	26.2 µM	60.7 µM	29 µM	27 µM	36.2 µM	28.4 µM	27.8 µM	29.8 µM											
COc1ccc2c(c1)C(=O)c1c-2n(CCCN=[N+]=[N-])c(=O)c2cc([N+](=O)[O-])ccc12			0.00531 µM	> 100 µM	0.874 µM	> 100 µM		0.991 µM	0.657 µM	0.00139 µM	> 100 µM	0.0018 µM	0.558 µM and 3.4 µM	0.268 µM	0.225 µM	< 0.001 µM				
CCOC(=O)NC(=O)c1cn(CCN(CCO)C(=O)NCCCCCCNC(=O)N(CCO)CCn2cc(C(=O)NC(=O)OCC)c(=O)[nH]c2=O)c(=O)[nH]c1=O	> 100 µM	> 100 µM	> 100 µM	> 100 µM	> 100 µM	> 100 µM	> 100 µM	> 100 µM	> 100 µM		> 100 µM									
COc1cc2c(c(OC)c1OC)-c1ccc(OC)c(=O)cc1C(NC(=O)CCCCCNc1ccc(N=[N+]=[N-])cc1[N+](=O)[O-])CC2 (configuration not stated)	16.2 µM	6.67 µM	18.4 µM		< 0.01 µM			< 0.01 µM			5.62 µM									
COc1cc(-c2n/c(=C\c3c(O)[nH]c4ccccc34)cc3c2=Nc2ccccc2-3)ccc1F	6.4 µM	22.2 µM	> 100 µM	> 100 µM	> 100 µM	40 µM	24.3 µM	21.7 µM	51.6 µM	3.61 µM	43 µM	38.5 µM	7.7 µM	19.9 µM	5.98 µM	8.79 µM	2.32 µM	5.78 µM	15 µM	4.94 µM
COc1nc2ccc(Cl)c(C(O)c3ccccc3)c2nc1OC (configuration not stated)	> 100 µM	41.3 µM	45.3 µM	> 100 µM	54.7 µM	59.2 µM	> 100 µM	96.3 µM	37.8 µM		63.4 µM									
CCCC[n+]1ccn(-c2nc3ccccc3n2C)c1	> 100 µM	> 100 µM	> 100 µM		> 100 µM	> 100 µM	> 100 µM	> 100 µM	> 100 µM											
COc1cc(/C=C2\C(=O)Nc3ccc(Cl)cc32)cc(OC)c1OC	> 100 µM	8.22 µM	> 100 µM	> 100 µM	> 100 µM	> 100 µM	> 100 µM	> 100 µM	> 100 µM	1.82 µM	59.3 µM	23.6 µM	4.07 µM	51.3 µM	16.3 µM	13.7 µM	43.9 µM	7.29 µM	29.5 µM	24.8 µM
N#C[S-].[Ce+3].c1ccc(-c2ccccn2)nc1.c1ccc(-c2ccccn2)nc1.c1ccc(-c2ccccn2)nc1	> 100 µM	98.4 µM	91.3 µM	> 100 µM	63.1 µM	64.1 µM	> 100 µM	55.2 µM		22.7 µM		10.8 µM	38 µM	18 µM	20.6 µM		13.2 µM		21.4 µM	45.6 µM
